In patent US5252598A, “Labdane derivatives, a process for their preparation, and their use as medicaments” (Hoechst Aktiengesellschaft, priority 1987, dated 1993):
Converted amounts (≈) assume the structure as drawn. Structures can show the parent of a compound that is named as a salt.

Test system: cats
Assay: Antihypertensive effect: blood pressure in anesthetized cats
Assay type: in vivo
Settings: anesthetized cat, i.v., 1 mg/kg
Protocol: Cats of both sexes and weighing 3 to 4 kg were anesthetized with ether and maintained under chloralose anesthesia (70 mg/kg i.v.). Cannulas were placed in the femoral artery and in the femoral vein to record the blood pressure and to administer the medicament, respectively. The blood pressure in the femoral artery was recorded using a Statham P 23 Db pressure transducer on a Nihon-Kohden pen recorder for physiological purposes. The compound to be tested was dissolved, if a salt, in distilled water, otherwise in propylene glycol and administered intravenously. The fall in blood pressure and the duration of the hypotensive activity were determined.

Row | Compound | Decrease in BP [mm Hg] | Duration (hypotensive activity) [min]
1 | C=C[C@@]1(C)CC(=O)[C@@]2(O)[C@](C)(O1)[C@@H](OC(=O)CN1CCCC1)C=C1C(C)(C)CC[C@H](O)[C@@]12C | 40 | 90
2 | C=C[C@@]1(C)CC(=O)[C@@]2(O)[C@](C)(O1)[C@@H](OC(=O)CN1CCN(C)CC1)C=C1C(C)(C)CC[C@H](O)[C@@]12C [drawing 108] | 40 | > 120
3 | C=C[C@@]1(C)CC(=O)[C@@]2(O)[C@](C)(O1)[C@@H](OC(=O)CN(CC)CC)C=C1C(C)(C)CC[C@H](O)[C@@]12C [COCH2 N(C2 H5)2, 7β-Diethylaminoacetoxy-1α,9α-dihydroxy-8,13-epoxy-labd-5,14-dien-11-one hydrochloride] | 36 | > 60
4 | C=C[C@@]1(C)CC(=O)[C@@]2(O)[C@](C)(O1)[C@@H](OC(=O)N1CCOCC1)C=C1C(C)(C)CC[C@H](O)[C@@]12C [drawing 106] | 32 | 45
5 | C=C[C@@]1(C)CC(=O)[C@@]2(O)[C@](C)(O1)[C@@H](OC(=O)CN1CCCCC1)C=C1C(C)(C)CC[C@H](O)[C@@]12C [drawing 107] | 30 | 90

Test system: Guinea pig atrium
Assay: Positive inotropic activity (contractility of isolated guinea pig atrium)
Assay type: cell-based
Settings: Cavia porcellus, isolated left and right atria, Ringer's solution, 32° C., contractility recorded 7 to 10 minutes
Protocol: Guineapigs of both sexes and weighing 400 g were sacrificed, and the heart was removed and placed in Ringer's solution at room temperature. Both the left and the right atria were then isolated and fixed in an organ holder, and the preparation was placed in an organ bath containing Ringer's solution and maintained at a temperature of 32° C. Carbogen (95% O2 and 5% CO2) was then bubbled through the organ bath. The compound to be tested is dissolved directly in water together with a stoichiometric amount of 0.1N HCL or a salt thereof to give a solution of known concentration and the latter is added to the bath. The contractility of the atrium is recorded for 7 to 10 minutes on a Nihon Kohden 4-channel pen recorder with an isometric strain gage. The activity is expressed on the basis of the resulting data as the EC50.

Row | Compound | EC50 [µg/mL]
6 | C=C[C@@]1(C)CC(=O)[C@@]2(O)[C@](C)(O1)[C@@H](OC(=O)N1CCN(C)CC1)C=C1C(C)(C)CC[C@H](O)[C@@]12C | 0.24 (≈ 0.504 µM)
7 | C=C[C@@]1(C)CC(=O)[C@@]2(O)[C@](C)(O1)[C@@H](OC(=O)N1CCOCC1)C=C1C(C)(C)CC[C@H](O)[C@@]12C [drawing 83] | 0.3 (≈ 0.647 µM)
8 | C=C[C@@]1(C)CC(=O)[C@@]2(O)[C@](C)(O1)[C@@H](OC(=O)CCCCN1CCOCC1)C=C1C(C)(C)CC[C@H](O)[C@@]12C | 0.17 (≈ 0.327 µM)
9 | C=C[C@@]1(C)CC(=O)[C@@]2(O)[C@](C)(O1)[C@@H](OC(=O)COC=O)C=C1C(C)(C)CC[C@H](O)[C@@]12C [COCH2 OCHO, 1α,9α-dihydroxy-8,13-epoxy-7β-formyloxyacetoxylabda-5,14-dien-11-one] | 0.024 (≈ 0.055 µM)
10 | C=C[C@@]1(C)CC(=O)[C@@]2(O)[C@](C)(O1)[C@@H](OC(=O)[C@H](O)CO)C=C1C(C)(C)CC[C@H](O)[C@@]12C [drawing 82] | 0.0008 (≈ 0.00182 µM)
11 | C=C[C@@]1(C)CC(=O)[C@@]2(O)[C@](C)(O1)[C@@H](OC(=O)NC)C=C1C(C)(C)CC[C@H](O)[C@@]12C [CONHCH3] | 0.051 (≈ 0.125 µM)
12 | C=C[C@@]1(C)CC(=O)[C@@]2(O)[C@](C)(O1)[C@@H](OC(=O)COC(=O)CN(C)C)C=C1C(C)(C)CC[C@H](O)[C@@]12C [COCH2 OCOCH2 NMe2, 1α,9α-Dihydroxy-7β-(N,N-dimethylaminoacetoxy)acetoxy-8,13-epoxy-labd-5,14-dien-11-one hydrochloride] | 0.8
13 | C=C[C@@]1(C)CC(=O)[C@@]2(O)[C@](C)(O1)[C@@H](OC(=O)COC(=O)CCN1CCN(C)CC1)C=C1C(C)(C)CC[C@H](O)[C@@]12C | 1 (≈ 1.78 µM)
14 | C=C[C@@]1(C)CC(=O)[C@@]2(O)[C@](C)(O1)[C@@H](OC(=O)COC(=O)CN1CCOCC1)C=C1C(C)(C)CC[C@H](O)[C@@]12C | 1 (≈ 1.87 µM)
15 | C=C[C@@]1(C)CC(=O)[C@@]2(O)[C@](C)(O1)[C@@H](OC(=O)COC(=O)CN(CC)CC)C=C1C(C)(C)CC[C@H](O)[C@@]12C [COCH2 OCOCH2 NEt2, hydrochloride hydrate] | 0.018
16 | C=C[C@@]1(C)CC(=O)[C@@]2(O)[C@](C)(O1)[C@@H](OC(=O)CCCN(CC)CC)C=C1C(C)(C)CC[C@H](O)[C@@]12C [CO(CH2)3 NEt2, 1α,9α-Dihydroxy-7β-(4-diethylaminobutyryloxy)-8,13-epoxylabda-5,14-dien-11-one] | 0.037 (≈ 0.0753 µM)
17 | C=C[C@@]1(C)CC(=O)[C@@]2(O)[C@](C)(O1)[C@@H](OC(=O)CCCCN(C)C)C=C1C(C)(C)CC[C@H](O)[C@@]12C [CO(CH2)4 NMe2, 1α,9α-Dihydroxy-7β-(5-dimethylaminovaleryloxy)-8,13-epoxylabda-5,14-dien-11-one] | 0.755 (≈ 1.58 µM)
18 | C=C[C@@]1(C)CC(=O)[C@@]2(O)[C@](C)(O1)[C@@H](OC(=O)COC(=O)CN1CCN(C)CC1)C=C1C(C)(C)CC[C@H](O)[C@@]12C | 0.44 (≈ 0.802 µM)
19 | C=C[C@@]1(C)CC(=O)[C@@]2(O)[C@](C)(O1)[C@@H](OC(=O)CN1CCC(O)(c3ccccc3)CC1)C=C1C(C)(C)CC[C@H](O)[C@@]12C | 0.3 (≈ 0.528 µM)
20 | C=C[C@@]1(C)CC(=O)[C@@]2(O)[C@](C)(O1)[C@@H](OC(=O)COC(=O)CN1CCCCC1)C=C1C(C)(C)CC[C@H](O)[C@@]12C | 3 (≈ 5.62 µM)
21 | C=C[C@@]1(C)CC(=O)[C@@]2(O)[C@](C)(O1)[C@@H](OC(=O)CCN1CCN(C)CC1)C=C1C(C)(C)CC[C@H](O)[C@@]12C | 0.3 (≈ 0.594 µM)
22 | C=C[C@@]1(C)CC(=O)[C@@]2(O)[C@](C)(O1)[C@@H](OC(=O)COC(=O)CN1CC(C)OC(C)C1)C=C1C(C)(C)CC[C@H](O)[C@@]12C (some centres unmarked) | 0.72 (≈ 1.28 µM)
23 | C=C[C@@]1(C)CC(=O)[C@@]2(O)[C@](C)(O1)[C@@H](OC(=O)CN(CC)CC)C=C1C(C)(C)CC[C@H](O)[C@@]12C [COCH2 N(C2 H5)2, 7β-Diethylaminoacetoxy-1α,9α-dihydroxy-8,13-epoxy-labd-5,14-dien-11-one hydrochloride] | 0.72
24 | C=C[C@@]1(C)CC(=O)[C@@]2(O)[C@](C)(O1)[C@@H](OC(=O)CN1CCSCC1)C=C1C(C)(C)CC[C@H](O)[C@@]12C | 0.14 (≈ 0.284 µM)
25 | C=C[C@@]1(C)CC(=O)[C@@]2(O)[C@](C)(O1)[C@@H](OC(=O)CN1CC(C)OC(C)C1)C=C1C(C)(C)CC[C@H](O)[C@@]12C (some centres unmarked) | 0.079 (≈ 0.156 µM)
26 | C=C[C@@]1(C)CC(=O)[C@@]2(O)[C@](C)(O1)[C@@H](OC(=O)CN1CCCCC1)C=C1C(C)(C)CC[C@H](O)[C@@]12C [drawing 92] | 0.072 (≈ 0.151 µM)
27 | C=C[C@@]1(C)CC(=O)[C@@]2(O)[C@](C)(O1)[C@@H](OC(=O)CCCN1CCN(C)CC1)C=C1C(C)(C)CC[C@H](O)[C@@]12C | 0.12 (≈ 0.231 µM)
28 | C=C[C@@]1(C)CC(=O)[C@@]2(O)[C@](C)(O1)[C@@H](OC(=O)CCN1CCCCC1)C=C1C(C)(C)CC[C@H](O)[C@@]12C | 0.28 (≈ 0.572 µM)
29 | C=C[C@@]1(C)CC(=O)[C@@]2(O)[C@](C)(O1)[C@@H](OC(=O)CCCN(C)C)C=C1C(C)(C)CC[C@H](O)[C@@]12C [CO(CH2)3 N(CH3)2, 1α,9α-Dihydroxy-7β-(4-N,N-dimethylaminobutyryloxy)8,13-epoxylabda-5,14-dien-11-one] | 0.058 (≈ 0.125 µM)
30 | C=C[C@@]1(C)CC(=O)[C@@]2(O)[C@](C)(O1)[C@@H](OC(C)=O)C=C1C(C)(C)CC[C@H](O)[C@@]12C [COCH3] | 0.028 (≈ 0.0713 µM)

Same assay, conditions: isolated left and right atria, Ringer's solution, 32° C., contractility recorded 7 to 10 minutes

Row | Compound | Guinea pig atrium EC50 [µg/mL]
31 | C=C[C@@]1(C)CC(=O)[C@@]2(O)[C@](C)(O1)[C@@H](OC(=O)CCCCN(C)C)C=C1C(C)(C)CC[C@H](O)[C@@]12C [CO(CH2)4 NMe2, 1α,9α-Dihydroxy-7β-(5-dimethylaminovaleryloxy)-8,13-epoxylabda-5,14-dien-11-one] | 0.615

Test system: conscious rabbits
Assay: Reduction in intraocular pressure in conscious rabbits
Assay type: in vivo
Settings: rabbit, instilled into one eye, dose percentage 0.25
Protocol: For this experiment rabbits of both sexes and weighing 2 to 3 kg are used. The intraocular pressure (IOP) is measured with a Schioetz tonometer after corneal anesthesia with 2% strength novocaine solution. […] […] The IOP is measured at defined time intervals, i.e. after 0.5, 1, 2, 3, 4 and 5 hours. The percentage reduction in the IOP is calculated using the baseline value.

Row | Compound | % decrease in IOD [%] | Duration (decrease in IOD) [min]
32 | C=C[C@@]1(C)CC(=O)[C@@]2(O)[C@](C)(O1)[C@@H](OC(=O)[C@H](O)CO)C=C1C(C)(C)CC[C@H](O)[C@@]12C [drawing 101] | 35.0 | > 360

Same assay, conditions: rabbit, instilled into one eye, dose percentage 1.00

Row | Compound | % decrease in IOD [%] | Duration (decrease in IOD) [min]
33 | C=C[C@@]1(C)CC(=O)[C@@]2(O)[C@](C)(O1)[C@@H](OC(=O)NC)C=C1C(C)(C)CC[C@H](O)[C@@]12C [CONHCH3] | 24.0 | > 360
34 | C=C[C@@]1(C)CC(=O)[C@@]2(O)[C@](C)(O1)[C@@H](OC(=O)NCCCC)C=C1C(C)(C)CC[C@H](O)[C@@]12C [CONH(CH2)3 CH3] | 27.0 | > 360
35 | C=C[C@@]1(C)CC(=O)[C@@]2(O)[C@](C)(O1)[C@@H](OC(=O)N1CCCC1)C=C1C(C)(C)CC[C@H](O)[C@@]12C | 26.0 | 240
36 | C=C[C@@]1(C)CC(=O)[C@@]2(O)[C@](C)(O1)[C@@H](OC(N)=O)C=C1C(C)(C)CC[C@H](O)[C@@]12C [CONH2, 7β-Amino-carbonyloxy-1α,9α-dihydroxy-8,13-epoxy-labd-5,14-dien-11-one] | 30.0 | > 360

Same assay, conditions: rabbit, instilled into one eye, dose percentage 2.00

Row | Compound | % decrease in IOD [%] | Duration (decrease in IOD) [min]
37 | C=C[C@@]1(C)CC(=O)[C@@]2(O)[C@](C)(O1)[C@@H](OC(=O)CN1CCN(C)CC1)C=C1C(C)(C)CC[C@H](O)[C@@]12C [drawing 104] | 23.9 | 360
38 | C=C[C@@]1(C)CC(=O)[C@@]2(O)[C@](C)(O1)[C@@H](OC(=O)CN1CCOCC1)C=C1C(C)(C)CC[C@H](O)[C@@]12C | 20.3 | 360
